According to patent US10981911B2, “Imidazopyrrolopyridine as inhibitors of the JAK family of kinases” (Janssen Pharmaceutica NV, priority 2016, dated 2021):
Read-outs that look alike come from different tables or passages of the source.

Legend:
[1] = tested on: IL-2 pSTAT5 (JAK1/JAK3); assay: IL-2 pSTAT5 (JAK1/JAK3) cellular assay (AlphaLISA, PBMCs); format: cell-based; conditions: PBMC, IL-2 at 5 ng/mL
Procedure: The AlphaLISA assay (based on Alpha Technology from PerkinElmer) was performed by first plating freshly thawed PBMCs (Biological Specialty Corporation) in 384-well plates at 30,000 cells per 4 μL per well in HBSS (Hanks' Balanced Salt Solution) containing 0.1% IgG (immunoglobulin G)-free, protease-free BSA (bovine serum albumin) (Jackson ImmunoResearch Cat. No. 001-000-161). The cells were then treated with 2 μL/well of compounds diluted in DMSO at half-log titrated concentrations, with a highest test concentration of 10 μM and 0.5% final DMSO concentration, for thirty minutes at 37° C. […] Compound IC50 was calculated by nonlinear regression, sigmoidal dose response analysis of the half-log dilution titration curve of the compound concentration vs. Alpha signal. The acronym “Alpha” stands for amplified luminescent proximity homogeneous assay; the Alpha signal is a luminescent/fluorescent signal.

[2] = Solubility assays in simulated gastric and simulated intestinal fluids; format: physicochemical; conditions: thermodynamic from solid, 2-5 days
Procedure: Test compounds were dissolved in DMSO at a concentration of 10 mM. The test compounds were dispensed (20 μL) into Nunc 1-mL-96-Deep-Well-PP plates, and the DMSO was evaporated via nitrogen blow down from a TurboVap 96 for 6 hours or until a dry residue was produced. Then, 400 μL of solubility media was added to the well containing the dry solid. […] After the incubation period, the samples were filtered through an AcroPrep 1-mL-96-Filter plate into a new 2-mL-96-Deep-Well-PP plate, and the supernatants were quantified by UV-HPLC using a 3-point calibration ranging from 0.004-0.55 mM. The solubility for each compound was calculated from the following equation: […] Solubilities are reported as long as the compound under study was sufficiently stable to complete the corresponding solubility determination.

[3] = In vivo p.o. dosing: plasma and colon tissue concentrations (Protocols 1 and 2); design: species or system female C57BL/6 mice; conditions: female, C57BL/6, mouse, po, mice, 25 mg/kg p.o.
Procedure: These protocols are described below under the heading In vivo Studies. Three non-fasted female C57BL/6 mice were orally administered test compound at a dose of 25 mg/kg p.o. as a solution in 20% hydroxypropyl-beta-cyclodextrin (HPβCD) at a dose volume of 5 mL/kg. Blood samples were collected at 0.5, 2, and 4 h post dose via retro-orbital bleed or venipuncture of the dorsal metatarsal vein. Blood samples were collected into tubes containing anticoagulant (Heparin-Na) and placed on wet ice. The plasma fraction was separated by centrifugation and frozen at −20° C. for up to 4 h and −80° C. after 4 h unless analyzed shortly after sample collection. Colon samples were collected at 4 h post dose. […] The colon was further washed by putting it in 5 mL of saline and shaken for 5 seconds. The colon sample was then patted dry, weighed, and homogenized as 1 part tissue (g) to 4 parts HPLC grade water (mL). Concentrations of the compound in plasma and colon homogenate were determined using a qualified liquid chromatography-triple quadrupole mass spectrometry (LC-MS/MS) method. […] Three non-fasted female C57BL/6 mice were orally administered test compound at a dose of 25 mg/kg p.o. as a solution in 20% HPβCD at a dose volume of 5 mL/kg. Blood samples were collected at 0.5, 2, and 4 h post dose via retro-orbital bleed or dorsal metatarsal vein. Blood samples were collected into tubes containing anticoagulant (Heparin-Na) and placed on wet ice. The plasma fraction was separated by centrifugation and frozen at −20° C. for up to 4 h and −80° C. after 4 h unless analyzed shortly after sample collection. Colon samples were collected at 4 h post dose. From 2 cm below the cecum, a 4 cm sample of the colon was dissected, cut open on the longitudinal axis, and the solid contents removed by flushing with 2 mL of saline. The colon was further washed by putting it in 5 mL of saline and shaken for 5 seconds. The colon sample was then patted dry, weighed, and homogenized as 1 part tissue (g) to 4 parts HPLC grade water (mL). Concentrations of the compound in plasma and colon homogenate were determined using a qualified liquid chromatography-triple quadrupole mass spectrometry (LC-MS/MS) method.

[4] = simulated gastric fluid, ambient temperature, read-out: SGF solubility
[5] = colon, read-out: Colon Concentration After p.o. Dosing, Mean
[6] = plasma, read-out: Plasma Concentration After p.o. Dosing, Mean
[7] = fassif, simulated intestinal fluid, fasted state pH 6.5, ambient temperature, read-out: SIF solubility

Row | Structure (SMILES) | IC50 [1] [nM] | solubility [2, 4] [µM] | concentration at 4 h [3, 5] [ng/g] | concentration at 0.5 h [3, 6] [ng/mL] | concentration at 2 h [3, 6] [ng/mL] | concentration at 4 h [3, 6] [ng/mL] | solubility [2, 7] [µM]
1 | N#CCC12CCC(NC(=O)Cc3nc4cnc5[nH]ccc5c4n3[C@H]3CC[C@H](CC#N)CC3)(CC1)C2 [Ex. 55, N-(4-(Cyanomethyl)bicyclo[2.2.1]heptan-1-yl)-2-(1-((1r,4r)-4-(cyanomethyl)cyclohexyl)-1,6-dihydroimidazo[4,5-d]pyrrolo[2,3-b]pyridin-2-yl)acetamide] | 16.8 | > 400 | 3000 | 26.6 | 3.2 | 3.1 | 
2 | CC(C)(C#N)CNC(=O)Cc1nc2cnc3[nH]ccc3c2n1[C@H]1CC[C@H](CC#N)CC1 [Ex. 22, N-(2-Cyano-2-methylpropyl)-2-(1-((1r,4r)-4-(cyanomethyl)cyclohexyl)-1,6-dihydroimidazo[4,5-d]pyrrolo[2,3-b]pyridin-2-yl)acetamide] | 9.7 | > 400 | 12000 | 47 | 9.6 | 5 | 
3 | N#CC[C@H]1CC[C@H](n2c(CC(=O)NCC3(O)CC3)nc3cnc4[nH]ccc4c32)CC1 [Ex. 85, 2-(1-((1r,4r)-4-(Cyanomethyl)cyclohexyl)-1,6-dihydroimidazo[4,5-d]pyrrolo[2,3-b]pyridin-2-yl)-N-((1-hydroxycyclopropyl)methyl)acetamide] | 13.9 | > 400 | 5880 | 15.6 | 4.2 | 2.3 | > 400
4 | N#CC[C@H]1CC[C@H](n2c(CC(=O)NCC3CCOCC3)nc3cnc4[nH]ccc4c32)CC1 [Ex. 10, 2-(1-((1r,4r)-4-(Cyanomethyl)cyclohexyl)-1,6-dihydroimidazo[4,5-d]pyrrolo[2,3-b]pyridin-2-yl)-N-((tetrahydro-2H-pyran-4-yl)methyl)acetamide] | 6.7 | > 400 | 11700 | 18.8 | 3 | 1.7 | > 400
5 | CC(C)(O)CNC(=O)Cc1nc2cnc3[nH]ccc3c2n1[C@H]1CC[C@H](CC#N)CC1 [Ex. 1, 2-(1-((1r,4r)-4-(Cyanomethyl)cyclohexyl)-1,6-dihydroimidazo[4,5-d]pyrrolo[2,3-b]pyridin-2-yl)-N-(2-hydroxy-2-methylpropyl)acetamide] |  | > 400 | 8590 | 13.4 | 6.1 | 3.3 | 
6 | N#CCCNC(=O)Cc1nc2cnc3[nH]ccc3c2n1[C@H]1CC[C@H](CC#N)CC1 [Ex. 4, N-(2-Cyanoethyl)-2-(1-((1r,4r)-4-(cyanomethyl)cyclohexyl)-1,6-dihydroimidazo[4,5-d]pyrrolo[2,3-b]pyridin-2-yl)acetamide] | 35.5 | > 400 | 4450 | 12.9 | 7.5 | 3.3 | > 400
7 | N#CC[C@H]1CC[C@H](n2c(CC(=O)NCC3CC3)nc3cnc4[nH]ccc4c32)CC1 [Ex. 3, 2-(1-((1r,4r)-4-(Cyanomethyl)cyclohexyl)-1,6-dihydroimidazo[4,5-d]pyrrolo[2,3-b]pyridin-2-yl)-N-(cyclopropylmethyl)acetamide] | 6.4 | > 400 | 2150 | 41.4 | 3.9 | 1.5 | > 400
8 | N#CC[C@H]1CC[C@H](n2c(CC(=O)NCC3(O)CCC3)nc3cnc4[nH]ccc4c32)CC1 [Ex. 34, 2-(1-((1r,4r)-4-(Cyanomethyl)cyclohexyl)-1,6-dihydroimidazo[4,5-d]pyrrolo[2,3-b]pyridin-2-yl)-N-((1-hydroxycyclobutyl)methyl)acetamide] | 20.6 | > 400 | 7400 | 43.1 | 5.4 | 2.6 | > 400
9 | N#CC[C@H]1CC[C@H](n2c(CC(=O)NC3CCOCC3)nc3cnc4[nH]ccc4c32)CC1 [Ex. 5, 2-(1-((1r,4r)-4-(Cyanomethyl)cyclohexyl)-1,6-dihydroimidazo[4,5-d]pyrrolo[2,3-b]pyridin-2-yl)-N-(tetrahydro-2H-pyran-4-yl)acetamide] | 6.4 | > 400 | 5330 | 31.9 | 8.8 | 6 | 
10 | N#CCC1CCC(n2c(-c3c[nH]cn3)nc3cnc4[nH]ccc4c32)CC1 (centres unmarked) [Ex. 2, 2-((1r,4r)-4-(2-(1H-Imidazol-4-yl)imidazo[4,5-d]pyrrolo[2,3-b]pyridin-1(6H)-yl)cyclohexyl)acetonitrile] | 9 | > 400 | 7600 | 24.5 | 4.2 | 1.3 | > 400
